Measured values reported in ChEMBL document CHEMBL3244029, “Synthesis and stereospecific antipsychotic activity of (-)-1-cyclopropylmethyl-4-(3-trifluoromethylthio-5H-dibenzo[a,d]cyclohepten-5-ylidene)piperidine” (J Med Chem, 1977).
Where “and” joins values, the source holds several entries; their conditions need not be identical. Equal entries are not always repeated. Calls of active or inactive are those of the source. The calls are words filed in the database; no cut-off is given here.

What was measured:
Saimiri [1] = test: Antipsychotic activity in squirrel monkey assessed as inhibition of conditioned avoidance response measured as maximum number of shocks possible per 30 mins interval at 1 mg/kg, po after 60 to 90 mins dosing; assay type: functional
Saimiri [2] = test: Antipsychotic activity in squirrel monkey assessed as inhibition of conditioned avoidance response measured as maximum number of shocks possible per 30 mins interval at 3 mg/kg, po after 120 to 150 mins dosing; assay type: functional
Saimiri [3] = test: Antipsychotic activity in squirrel monkey assessed as inhibition of conditioned avoidance response measured as maximum number of shocks possible per 30 mins interval at 1 mg/kg, po after 0 to 30 mins dosing; assay type: functional
Saimiri [4] = test: Antipsychotic activity in squirrel monkey assessed as inhibition of conditioned avoidance response measured as maximum number of shocks possible per 30 mins interval at 3 mg/kg, po after 150 to 180 mins dosing; assay type: functional
Saimiri [5] = test: Antipsychotic activity in squirrel monkey assessed as inhibition of conditioned avoidance response at 9 mg/kg, po; assay type: functional, organism-based; parameters: dose 9 mg/kg
Saimiri [6] = test: Antipsychotic activity in squirrel monkey assessed as inhibition of conditioned avoidance response measured as maximum number of shocks possible per 30 mins interval at 1 mg/kg, po after 30 to 60 mins dosing; assay type: functional
Saimiri [7] = test: Antipsychotic activity in squirrel monkey assessed as inhibition of conditioned avoidance response measured as maximum number of shocks possible per 30 mins interval at 3 mg/kg, po after 90 to 120 mins dosing; assay type: functional
Saimiri [8] = test: Antipsychotic activity in squirrel monkey assessed as inhibition of conditioned avoidance response at 27 mg/kg, po; assay type: functional, organism-based; parameters: dose 27 mg/kg
Saimiri [9] = test: Antipsychotic activity in squirrel monkey assessed as inhibition of conditioned avoidance response measured as maximum number of shocks possible per 30 mins interval at 0.25 mg/kg, po after 0 to 30 mins dosing; assay type: functional
Saimiri [10] = test: Antipsychotic activity in squirrel monkey assessed as inhibition of conditioned avoidance response measured as maximum number of shocks possible per 30 mins interval at 0.25 mg/kg, po after 30 to 60 mins dosing; assay type: functional
Saimiri [11] = test: Antipsychotic activity in squirrel monkey assessed as inhibition of conditioned avoidance response measured as maximum number of shocks possible per 30 mins interval at 1 mg/kg, po 6 days later animal received test compound followed by 0.75 mg/kg, im benztropine 15 mins later measured after 1 to 1.5 hrs of dosing; assay type: functional
Saimiri [12] = test: Antipsychotic activity in squirrel monkey assessed as inhibition of conditioned avoidance response measured as maximum number of shocks possible per 30 mins interval at 1 mg/kg, po 10 days later animal received test compound and again saline measured after 1.5 to 2 hrs of dosing; assay type: functional
Saimiri [13] = test: Antipsychotic activity in squirrel monkey assessed as inhibition of conditioned avoidance response measured as maximum number of shocks possible per 30 mins interval at 1 mg/kg, po after 210 to 240 mins dosing; assay type: functional
Saimiri [14] = test: Antipsychotic activity in squirrel monkey assessed as inhibition of conditioned avoidance response measured as maximum number of shocks possible per 30 mins interval at 1 mg/kg, po 10 days later animal received test compound and again saline measured after 0 to 0.5 hrs of dosing; assay type: functional
Mus musculus [15] = test: Central anticholinergic activity against physostigmine-induced lethality in Carworth CF1 mouse assessed as animal death at 7.5 mg/kg, po treated 5 hrs before 1.6 mg/kg, sc physostigmine treatment and 2 mg/kg, ip atropine methyl nitrate treated 0.5 hrs before induction (reference value: 0%); assay type: functional
Saimiri [16] = test: Antipsychotic activity in squirrel monkey assessed as inhibition of conditioned avoidance response measured as maximum number of shocks possible per 30 mins interval at 1 mg/kg, po 10 days later animal received test compound and again saline measured after 4 to 4.5 hrs of dosing; assay type: functional
Mus musculus [17] = test: Peripheral anticholinergic activity in po dosed Carworth CF1 mouse assessed as dose required to produce pupil dilation to 1.5 micrometer units in 50% mouse after 5 hrs; assay type: ADME, organism-based; conditions: in vivo
Saimiri [18] = test: Antipsychotic activity in squirrel monkey assessed as inhibition of conditioned avoidance response measured as maximum number of shocks possible per 30 mins interval at 1 mg/kg, po 6 days later animal received test compound followed by 0.75 mg/kg, im benztropine 15 mins later measured after 3 to 3.5 hrs of dosing; assay type: functional
Saimiri [19] = test: Antipsychotic activity in squirrel monkey assessed as inhibition of conditioned avoidance response measured as maximum number of shocks possible per 30 mins interval at 1 mg/kg, po 6 days later animal received test compound followed by 0.75 mg/kg, im benztropine 15 mins later measured after 1.5 to 2 hrs of dosing; assay type: functional
Mus musculus [20] = test: Central anticholinergic activity against physostigmine-induced lethality in Carworth CF1 mouse assessed as animal death at 3.75 mg/kg, po treated 5 hrs before 1.6 mg/kg, sc physostigmine treatment and 2 mg/kg, ip atropine methyl nitrate treated 0.5 hrs before induction (reference value: 0%); assay type: functional
Saimiri [21] = test: Antipsychotic activity in squirrel monkey assessed as inhibition of conditioned avoidance response measured as maximum number of shocks possible per 30 mins interval at 1 mg/kg, po 6 days later animal received test compound followed by 0.75 mg/kg, im benztropine 15 mins later measured after 0 to 0.5 hrs of dosing; assay type: functional
Saimiri [22] = test: Antipsychotic activity in squirrel monkey assessed as inhibition of conditioned avoidance response measured as maximum number of shocks possible per 30 mins interval at 1 mg/kg, po 10 days later animal received test compound and again saline measured after 2.5 to 3 hrs of dosing; assay type: functional
Saimiri [23] = test: Antipsychotic activity in squirrel monkey assessed as inhibition of conditioned avoidance response measured as maximum number of shocks possible per 30 mins interval at 1 mg/kg, po 6 days later animal received test compound followed by 0.75 mg/kg, im benztropine 15 mins later measured after 2.5 to 3 hrs of dosing; assay type: functional
Saimiri [24] = test: Antipsychotic activity in squirrel monkey assessed as inhibition of conditioned avoidance response measured as maximum number of shocks possible per 30 mins interval at 1 mg/kg, po 6 days later animal received test compound followed by 0.75 mg/kg, im benztropine 15 mins later measured after 2 to 2.5 hrs of dosing; assay type: functional
Mus musculus [25] = test: Central anticholinergic activity against physostigmine-induced lethality in Carworth CF1 mouse assessed as animal death at 15 mg/kg, po treated 5 hrs before 1.6 mg/kg, sc physostigmine treatment and 2 mg/kg, ip atropine methyl nitrate treated 0.5 hrs before induction (reference value: 0%); assay type: functional
Saimiri [26] = test: Antipsychotic activity in squirrel monkey assessed as inhibition of conditioned avoidance response measured as maximum number of shocks possible per 30 mins interval at 1 mg/kg, po 6 days later animal received test compound followed by 0.75 mg/kg, im benztropine 15 mins later measured after 0.5 to 1 hrs of dosing; assay type: functional
Saimiri [27] = test: Antipsychotic activity in squirrel monkey assessed as inhibition of conditioned avoidance response measured as maximum number of shocks possible per 30 mins interval at 0.50 mg/kg, po after 150 to 180 mins dosing; assay type: functional; conditions: dose 0.5 mg/kg
Saimiri [28] = test: Antipsychotic activity in squirrel monkey assessed as inhibition of conditioned avoidance response measured as maximum number of shocks possible per 30 mins interval at 1 mg/kg, po 6 days later animal received test compound followed by 0.75 mg/kg, im benztropine 15 mins later measured after 3.5 to 4 hrs of dosing; assay type: functional
Saimiri [29] = test: Antipsychotic activity in squirrel monkey assessed as inhibition of conditioned avoidance response measured as maximum number of shocks possible per 30 mins interval at 1 mg/kg, po 10 days later animal received test compound and again saline measured after 3.5 to 4 hrs of dosing; assay type: functional
Saimiri [30] = test: Antipsychotic activity in squirrel monkey assessed as inhibition of conditioned avoidance response measured as maximum number of shocks possible per 30 mins interval at 1 mg/kg, po after 240 to 270 mins dosing; assay type: functional
Saimiri [31] = test: Antipsychotic activity in squirrel monkey assessed as inhibition of conditioned avoidance response measured as maximum number of shocks possible per 30 mins interval at 0.50 mg/kg, po after 90 to 120 mins dosing; assay type: functional; conditions: dose 0.5 mg/kg
Saimiri [32] = test: Antipsychotic activity in squirrel monkey assessed as inhibition of conditioned avoidance response measured as maximum number of shocks possible per 30 mins interval at 1 mg/kg, po after 180 to 210 mins dosing; assay type: functional
Mus musculus [33] = test: Peripheral anticholinergic activity in po dosed Carworth CF1 mouse assessed as dose required to produce pupil dilation to 1.5 micrometer units in 50% mouse after 2 hrs; assay type: ADME, organism-based; conditions: in vivo
Saimiri [34] = test: Antipsychotic activity in squirrel monkey assessed as inhibition of conditioned avoidance response measured as maximum number of shocks possible per 30 mins interval at 1 mg/kg, po 10 days later animal received test compound and again saline measured after 1 to 1.5 hrs of dosing; assay type: functional
Saimiri [35] = test: Antipsychotic activity in squirrel monkey assessed as inhibition of conditioned avoidance response measured as maximum number of shocks possible per 30 mins interval at 1 mg/kg, po 10 days later animal received test compound and again saline measured after 0.5 to 1 hrs of dosing; assay type: functional
Saimiri [36] = test: Antipsychotic activity in squirrel monkey assessed as inhibition of conditioned avoidance response measured as maximum number of shocks possible per 30 mins interval at 1 mg/kg, po 10 days later animal received test compound and again saline measured after 2 to 2.5 hrs of dosing; assay type: functional
Saimiri [37] = test: Antipsychotic activity in squirrel monkey assessed as inhibition of conditioned avoidance response measured as maximum number of shocks possible per 30 mins interval at 0.25 mg/kg, po after 60 to 90 mins dosing; assay type: functional
Saimiri [38] = test: Antipsychotic activity in squirrel monkey assessed as inhibition of conditioned avoidance response measured as maximum number of shocks possible per 30 mins interval at 0.50 mg/kg, po after 120 to 150 mins dosing; assay type: functional; conditions: dose 0.5 mg/kg
Mus musculus [39] = test: Central anticholinergic activity against physostigmine-induced lethality in Carworth CF1 mouse assessed as animal death at 30 mg/kg, po treated 5 hrs before 1.6 mg/kg, sc physostigmine treatment and 2 mg/kg, ip atropine methyl nitrate treated 0.5 hrs before induction (reference value: 0%); assay type: functional
Saimiri [40] = test: Antipsychotic activity in squirrel monkey assessed as inhibition of conditioned avoidance response measured as maximum number of shocks possible per 30 mins interval at 1 mg/kg, po 6 days later animal received test compound followed by 0.75 mg/kg, im benztropine 15 mins later measured after 4 to 4.5 hrs of dosing; assay type: functional
Saimiri [41] = test: Antipsychotic activity in squirrel monkey assessed as inhibition of conditioned avoidance response measured as maximum number of shocks possible per 30 mins interval at 1 mg/kg, po 10 days later animal received test compound and again saline measured after 3 to 3.5 hrs of dosing; assay type: functional
Mus musculus [42] = test: Central anticholinergic activity against physostigmine-induced lethality in Carworth CF1 mouse assessed as animal death at 10 mg/kg, po treated 5 hrs before 1.6 mg/kg, sc physostigmine treatment and 2 mg/kg, ip atropine methyl nitrate treated 0.5 hrs before induction (reference value: 0%); assay type: functional
Saimiri [43] = test: Antipsychotic activity in po dosed squirrel monkey assessed as inhibition of conditioned avoidance response measured as maximum number of shocks; assay type: functional; conditions: Saimiri, in Primates, po; read-out: ED50

With CN1CCC(=C2c3ccccc3C=Cc3ccc(SC(F)(F)F)cc32)CC1 the “%max” value (Saimiri [1]) was 8%, the “%max” value (Saimiri [2]) was 100% and the “%max” value (Saimiri [3]) was 0%. The “%max” value (Saimiri [4]) was 100%, the inhibition (Saimiri [5]) was “inactive” and the “%max” value (Saimiri [6]) was 0.66%. The “%max” value (Saimiri [7]) was 77.4%.

In the case of FC(F)(F)Sc1ccc2c(c1)C(=C1CCN(CC3CC3)CC1)c1ccccc1C=C2, the inhibition (Saimiri [8]) is reported as “inactive”.

FC(F)(F)Sc1ccc2c(c1)C(=C1CCN(CC3CC3)CC1)c1ccccc1C=C2 (single isomer, unassigned; atropisomer) was tested, and the “%max” value (Saimiri [9]) was 0.34%, the “%max” value (Saimiri [10]) was 0.34% and the “%max” value (Saimiri [11]) was 5.7%. For the same molecule, the “%max” value (Saimiri [12]) was 52.7%, the “%max” value (Saimiri [13]) was 100% and the “%max” value (Saimiri [14]) was 0%. The Activity (Mus musculus [15]) was 95% and 80%, the “%max” value (Saimiri [16]) was 64.3% and the ED (Mus musculus [17]) was over 120 mg/kg. The “%max” value (Saimiri [18]) was 4%, the “%max” value (Saimiri [19]) was 5.3% and the Activity (Mus musculus [20]) was 100%. The “%max” value (Saimiri [21]) was 2%, the “%max” value (Saimiri [22]) was 42.7% and the “%max” value (Saimiri [23]) was 4.3%. The “%max” value (Saimiri [24]) was 8.7%, the Activity (Mus musculus [25]) was 100% and 85% and the “%max” value (Saimiri [26]) was 7.6%. For the same molecule, the “%max” value (Saimiri [27]) was 97.4%, the “%max” value (Saimiri [28]) was 3% and the “%max” value (Saimiri [29]) was 73%. For the same molecule, the “%max” value (Saimiri [30]) was 100%, the “%max” value (Saimiri [31]) was 17.4% and the “%max” value (Saimiri [32]) was 100%. For the same molecule, the ED (Mus musculus [33]) was over 120 mg/kg, the “%max” value (Saimiri [34]) was 42% and the “%max” value (Saimiri [35]) was 1.7%. The “%max” value (Saimiri [36]) was 69.3%, the “%max” value (Saimiri [37]) was 0.68% and the “%max” value (Saimiri [38]) was 39.4%. For the same molecule, the Activity (Mus musculus [39]) was 85% and 63%, the “%max” value (Saimiri [40]) was 3.7% and the “%max” value (Saimiri [41]) was 70.3%.

Work on CN1CCC(=C2c3ccccc3C=Cc3ccccc32)CC1 [CYPROHEPTADINE] yielded an Activity (Mus musculus [42]) of 0% and an ED (Mus musculus [33]) of 6 mg/kg.

CSc1ccc2c(c1)N(CCC1CCCCN1C)c1ccccc1S2.Cl (centres undefined) [THIORIDAZINE HYDROCHLORIDE] showed an ED50 (Saimiri [43]) of 0.97 mg/kg.
